{"source": "patent US20090326053A1", "about": "“DIAGNOSTIC USES OF FOLLISTATIN-LIKE 1” (TRUSTEES OF BOSTON UNIVERSITY, priority 2008, published 2009)", "key": {"[1]": {"system": "neonatal rat ventricular myocytes (NRVMs)", "test": "TUNEL staining of NRVMs after hypoxia/reoxygenation (H/R)", "assay_type": "cell-based", "settings": "inhibitor 10 μmol/L, 3 hours prior to H/R; P<0.05", "experimental": "(§1) Myocyte cultures. Primary cultures of neonatal rat ventricular myocytes (NRVCs) were prepared and incubated in Dulbecco's modified Eagle's medium (DMEM) supplemented with 7% Fetal Calf Serum (FCS)^42. Eighteen to 24 hours after preparation, cells were transfected with adenoviral vector at a multiplicity of infection (MOI) of 50 in DMEM without serum for 16 hours and incubated in DMEM without serum for more than 12 hours. Hypoxic conditions were generated using a GasPak system (Becton Dickinson) as described previously. For hypoxia/reoxygenation studies, cells were exposed 12 hr hypoxia followed by 24 hr reoxygenation.\nTUNEL staining. TUNEL staining for cultured cardiac myocytes was performed using the In Situ Cell Death detection kit (Roche) as described previously^2 with some modifications. In brief, cells are fixed by 4% paraformaldehyde in PBS, permeabilized with 0.1% Triton X-100 and incubated with anti-sarcomeric actinin antibody for 60 min followed by incubation with Cy3-conjugated anti-mouse IgG antibody. Cells were then incubated with TUNEL staining solution for 1 hr according to the manufacture's protocol. DAPI was used for nuclear staining. […] TUNEL positive myocytes were counted in randomly selected three fields of the slide and the experiments were repeated three times in duplicates."}, "[2]": {"system": "neonatal rat ventricular myocytes (NRVMs)", "test": "Nucleosome fragmentation ELISA in NRVMs", "assay_type": "cell-based", "settings": "inhibitor 10 μmol/L, 3 hours prior to H/R", "experimental": "as §1\nDetection of nucleosome fragmentation by ELISA. Nucleosome fragmentation was assessed by ELISA using Cell Death Detection kit (Roche) according to the manufacture's protocol. Cardiac myocytes were seeded in 96-well plates, transfected with adenoviral vector and exposed to H/R. In one assay, 8 wells are used for one group and assays are repeated three times. The extent of nucleosome fragmentation of each group was expressed as relative value in comparison with the value of control group (Ad-βgal transfected cells without H/R)."}}, "data": [{"compound": "N#CC(=C(/N)Sc1ccccc1N)/C(C#N)=C(\\N)Sc1ccccc1N", "note": "[U0126]", "values": [{"measurement": "protective action of Ad-Fstl1 on TUNEL positive cells after pre-incubation with inhibitor", "setting": "[1]", "result": "partially attenuated"}, {"measurement": "inhibitory effect of Fstl1 on nucleosome fragmentation after treatment with inhibitor", "setting": "[2]", "result": "significantly attenuated"}]}]}
